EP0853084B1, “Substituted purine derivatives as vitronectin receptor antagonists” (HOECHST AKTIENGESELLSCHAFT, priority 1996, dated 1998)

biological target: humanen Vitronectinrezeptor (VnR) αvβ3 (Homo sapiens, UniProt P05106+P06756); experiment: Inhibition of binding of Kistrin to human vitronectin receptor (αvβ3 ELISA test, K/VnR); details: 10 µM test compound, read-out: K/VnR Inhibierung bei 10 µM (in %)
Description: Als Testmethode, nach der beispielsweise die antagonistische Wirkung der erfindungsgemäßen Verbindungen auf den Vitronectinrezeptor αvβ3 bestimmt werden kann, wird nachfolgend die Inhibierung der Bindung von Kistrin an humanen Vitronectinrezeptor (VnR) beschrieben (αvβ3-ELISA-Test; die Testmethode wird bei der Auflistung der Testergebnisse mit "K/VnR" abgekürzt).
Kistrin wird nach den Methoden von Dennis et al., wie in Proc. Natl. Acad. Sci. USA 1989, 87, 2471-2475 und PROTEINS: Structure, Function and Genetics 1993, 15, 312-321, beschrieben, gereinigt.
Humaner Vitronectinrezeptor wird aus der menschlichen Plazenta nach der Methode von Pytela et al., Methods Enzymol. 1987, 14.4, 475 gewonnen. Humaner Vitronectinrezeptor αvβ3 kann auch aus einigen Zellinien (zum Beispiel aus 293 Zellen, einer humanen embryonalen Nierenzellinie), die mit DNA Sequenzen für beide Untereinheiten αv und β3 des Vitronectinrezeptors co-transfziert sind, gewonnen werden. Die Untereinheiten wurden mit Octylglycosid extrahiert und anschließend über Concanavalin A, Heparin-Sepharose und S-300 chromatographiert.
Murine monoklonale Antikörper, spezifisch für die β3 Untereinheit des Vitronectinrezeptors, werden nach der Methode von Newman et al., Blood, 1985, 227-232, oder nach einem ähnlichen Verfahren hergestellt. Das Kaninchen Fab 2 anti-Maus Fc Konjugat an Meerrettich-Peroxidase (anti-Maus Fc HRP) wurde von Pel Freeze (Katalog Nr. 715 305-1) bezogen.
Die Fähigkeit von Substanzen die Bindung von Kistrin an den Vitronectinrezeptor zu inhibieren, kann mit einem ELISA-Test ermittelt werden. Zu diesem Zweck werden Nunc 96 well-Mikrotiterplatten mit einer Lösung von Kistrin (0.002 mg/ml) nach der Methode von Dennis et al., wie in PROTEINS: Structure, Function and Genetics 1993, 15, 312-321, beschrieben, belegt. Die Platten werden dann zweimal mit PBS/0.05 % Tween-20 gewaschen und durch Inkubieren (60 min) mit RinderserumAlbumin (BSA, 0.5 %, RIA Güteklasse oder besser) in Tris-HCl (50 mM), NaCl (100 mM), MgCl2 (1 mM), CaCl2 (1 mM), MnCl2 (1 mM), pH 7, geblockt. Man stellt Lösungen von bekannten Inhibitoren und von den Testsubstanzen in Konzentrationen von 2 x 10^-12 bis 2 x 10^-6 mol/l in Assay-Puffer (BSA (0.5 %, RIA-Güteklasse oder besser) in Tris-HCl (50 mM), NaCl (100 mM), MgCl2 (1 mM), CaCl2 (1 mM), MnCl2 (1 mM), pH 7) her. Die geblockten Platten werden entleert, und jeweils 0.025 ml dieser Lösung, die eine definierte Konzentration (2 x 10^-12 bis 2 x 10^-6 mol/l) entweder an einem bekannten Inhibitor oder an einer Testsubstanz enthält, werden in jedes well gegeben. 0.025 ml einer Lösung des Vitronectinrezeptors im Testpuffer (0.03 mg/ml) werden in jedes well der Platte pipettiert und die Platte wird auf einem Schüttler 60-180 min bei Raumtemperatur inkubiert. In der Zwischenzeit wird eine Lösung (6 ml/Platte) eines für die β3-Untereinheit des Vitronectinrezeptors spezifischen murinen monoklonalen Antikörpers im Assay-Puffer (0.0015 mg/ml) hergestellt. Zu dieser Lösung gibt man einen zweiten Kaninchen-Antikörper (0.001 ml Stammlösung/6 ml der murinen monoklonalen anti-β3-Antikörper-Lösung), der ein anti-Maus Fc HRP Antikörper Konjugat darstellt, und dieses Gemisch aus murinem anti-β3 Antikörper und Kaninchen anti-Maus Fc HRP Antikörper Konjugat läßt man während der Zeit der Rezeptor-Inhibitor-Inkubation inkubieren. Die Testplatten werden viermal mit PBS-Lösung, die 0.05 % Tween-20 enthält, gewaschen und man pipettiert jeweils 0.05 ml/well der Antikörpermischung in jedes well der Platte und inkubiert 60-180 min. Die Platte wird viermal mit PBS/0.05 % Tween-20 gewaschen und anschließend mit 0.05 ml/well einer PBS-Lösung, die 0.67 mg/ml o-Phenylendiamin und 0.012 % H2O2 enthält, entwickelt. Alternativ hierzu kann o-Phenylendiamin in einem Puffer (pH 5) eingesetzt werden, der Na3PO4 und Zitronensäure enthält. Die Farbentwicklung wird mit 1 N H2SO4 (0.05 ml/well) gestoppt. […]

Sequence of humanen Vitronectinrezeptor (VnR) αvβ3 (P06756 31-889 limits assumed): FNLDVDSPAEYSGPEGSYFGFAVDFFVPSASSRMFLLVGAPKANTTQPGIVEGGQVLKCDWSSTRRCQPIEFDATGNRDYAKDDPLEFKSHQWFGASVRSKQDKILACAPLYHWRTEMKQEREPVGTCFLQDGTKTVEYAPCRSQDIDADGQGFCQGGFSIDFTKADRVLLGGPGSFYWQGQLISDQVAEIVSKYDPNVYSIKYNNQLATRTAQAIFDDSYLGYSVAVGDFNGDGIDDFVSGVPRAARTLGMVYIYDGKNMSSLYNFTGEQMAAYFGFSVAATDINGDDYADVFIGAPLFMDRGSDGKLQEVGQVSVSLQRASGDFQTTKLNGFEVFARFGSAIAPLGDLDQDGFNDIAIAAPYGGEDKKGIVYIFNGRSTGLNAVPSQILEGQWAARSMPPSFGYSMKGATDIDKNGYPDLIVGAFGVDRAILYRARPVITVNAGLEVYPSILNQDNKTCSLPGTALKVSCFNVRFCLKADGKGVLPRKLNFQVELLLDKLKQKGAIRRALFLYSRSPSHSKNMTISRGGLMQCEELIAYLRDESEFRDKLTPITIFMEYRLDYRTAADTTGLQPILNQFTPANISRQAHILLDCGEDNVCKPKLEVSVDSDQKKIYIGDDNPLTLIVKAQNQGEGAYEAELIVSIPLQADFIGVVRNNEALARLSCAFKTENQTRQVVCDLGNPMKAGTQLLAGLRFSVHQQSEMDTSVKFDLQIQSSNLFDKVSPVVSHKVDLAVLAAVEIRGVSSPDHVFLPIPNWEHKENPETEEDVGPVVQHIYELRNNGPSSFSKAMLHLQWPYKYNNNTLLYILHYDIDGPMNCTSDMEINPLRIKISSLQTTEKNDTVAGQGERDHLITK
Sequence of humanen Vitronectinrezeptor (VnR) αvβ3 (P06756 891-1048 partner limits assumed): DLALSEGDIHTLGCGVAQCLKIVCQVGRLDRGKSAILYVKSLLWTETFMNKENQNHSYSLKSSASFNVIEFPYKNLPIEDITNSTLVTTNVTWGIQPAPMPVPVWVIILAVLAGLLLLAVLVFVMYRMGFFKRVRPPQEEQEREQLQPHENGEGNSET
Sequence of humanen Vitronectinrezeptor (VnR) αvβ3 (P05106 27-788): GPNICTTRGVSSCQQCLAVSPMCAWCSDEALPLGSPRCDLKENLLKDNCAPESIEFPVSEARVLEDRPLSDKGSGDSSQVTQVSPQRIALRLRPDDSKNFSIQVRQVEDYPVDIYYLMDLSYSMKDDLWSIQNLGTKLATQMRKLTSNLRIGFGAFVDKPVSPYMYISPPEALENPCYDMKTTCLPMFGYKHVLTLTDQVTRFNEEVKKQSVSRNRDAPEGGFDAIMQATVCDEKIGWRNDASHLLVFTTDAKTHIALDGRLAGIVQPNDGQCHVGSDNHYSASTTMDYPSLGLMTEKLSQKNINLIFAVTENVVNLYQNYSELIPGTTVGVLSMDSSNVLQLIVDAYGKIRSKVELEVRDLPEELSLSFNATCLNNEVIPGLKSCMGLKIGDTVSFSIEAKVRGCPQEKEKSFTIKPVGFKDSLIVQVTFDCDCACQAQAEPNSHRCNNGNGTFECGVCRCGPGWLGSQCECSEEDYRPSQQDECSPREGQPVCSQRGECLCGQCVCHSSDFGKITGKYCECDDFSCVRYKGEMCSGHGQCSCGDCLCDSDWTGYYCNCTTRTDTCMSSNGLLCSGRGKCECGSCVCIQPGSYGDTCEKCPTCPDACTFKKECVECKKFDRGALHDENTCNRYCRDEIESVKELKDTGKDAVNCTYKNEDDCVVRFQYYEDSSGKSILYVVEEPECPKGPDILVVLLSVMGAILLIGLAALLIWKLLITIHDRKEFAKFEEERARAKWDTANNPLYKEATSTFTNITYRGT

Row | SMILES | inhibition at 10 µM
1 | N=C(N)NCCCCCNc1ncnc2c1ncn2C[C@H](NC(=O)OCc1ccccc1)C(=O)O [Beispiel 1, N^6-(1-(5-Guanidinopentyl))-N^9-(3-(2S-(benzyloxycarbonylamino)propionsäure))-adenin] | 75%
2 | N=C(N)NCCCNc1ncnc2c1ncn2C[C@H](NC(=O)OCc1ccccc1)C(=O)O [Beispiel 3, N^6-(1-(3-Guanidinopropyl))-N^9-(3-(2S-(benzyloxycarbonylamino)propionsäure))-adenin] | 77%
3 | O=C(N[C@@H](CCNc1ncnc2c1ncn2CCCNC1=NCCN1)C(=O)O)OCc1ccccc1 [Beispiel 13, N^6-(4-(2S-(Benzyloxycarbonylamino)buttersäure))-N^9-(1-(3-(4,5-dihydro-1H-imidazol-2-ylamino)-propyl))-adenin] | 92%
4 | NCCCCCn1cnc2c(NC[C@H](NC(=O)OCc3ccccc3)C(=O)O)ncnc21 [Beispiel 14c, N^6-(3-(2S-(Benzyloxycarbonylamino)propionsäure))-N^9-(1-(5-aminopentyl))-adenin] | 22%
5 | N=C(N)NCCCCn1cnc2c(NC[C@H](NC(=O)OCc3ccccc3)C(=O)O)ncnc21 [Beispiel 17, N^6-(3-(2S-(Benzyloxycarbonylamino)propionsäure))-N^9-(1-(4-guanidinylbutyl))-adenin] | 92%
6 | N=C(N)NCCCCNc1ncnc2c1ncn2C[C@H](NC(=O)OCc1ccccc1)C(=O)O [Beispiel 2, N^6-(1-(4-Guanidinobutyl))-N^9-(3-(2S-(benzyloxycarbonylamino)propionsäure))-adenin] | 80%
7 | NCCCn1cnc2c(NC[C@H](NC(=O)OCc3ccccc3)C(=O)O)ncnc21 [Beispiel 16b, N^6-(3-(2S-(Benzyloxycarbonylamino)propionsäure))-N^9-(1-(3-aminopropyl))-adenin] | 29%
8 | O=C(N[C@@H](Cn1cnc2c(NCCCCNC3=NCCN3)ncnc21)C(=O)O)OCc1ccccc1 [Beispiel 4, N^6-(1-(4-(4,5-Dihydro-1H-imidazol-2-ylamino)butyl))-N^9-(3-(2S-(benzyloxycarbonylamino)propionsäure))-adenin] | 93%
9 | O=C(N[C@@H](Cn1cnc2c(NCCCCNc3nc4ccccc4[nH]3)ncnc21)C(=O)O)OCc1ccccc1 [Beispiel 23, 3-(6-((4-(Benzimidazol-2-ylamino)-butyl)-amino)-purin-9-yl)-2S-benzyloxycarbonyl-amino-propionsäure] | 93%
10 | O=C(N[C@H](Cn1cnc2c(N3CCC(CNC4=NCCN4)CC3)ncnc21)C(=O)O)OCc1ccccc1 [Beispiel 25] | 89%
11 | N=C(N)NCCCn1cnc2c(NC[C@H](NC(=O)OCc3ccccc3)C(=O)O)ncnc21 [Beispiel 16, N^6-(3-(2S-(Benzyloxycarbonylamino)propionsäure))-N^9-(1-(3-guanidinylpropyl))-adenin] | 85%
12 | N=C(N)NCCCn1cnc2c(NCC[C@H](NC(=O)OCc3ccccc3)C(=O)O)ncnc21 [Beispiel 12, N^6-(4-(2S-(Benzyloxycarbonylamino)buttersäure))-N^9-(1-(3-guanidinylpropyl))-adenin] | 86%
13 | O=C(N[C@@H](CNc1ncnc2c1ncn2CCCCCNC1=NCCN1)C(=O)O)OCc1ccccc1 [Beispiel 15, N^6-(3-(2S-(Benzyloxycarbonylamino)propionsäure))-N^9-(1-(5-(4,5-dihydro-1H-imidazol-2-ylamino)pentyl))-adenin] | 92%
14 | O=C(N[C@@H](Cn1cnc2c(N3CCC(C(=O)NC4=NCCCN4)CC3)ncnc21)C(=O)O)OCc1ccccc1 [Beispiel 19, 2S-Benzyloxycarbonylamino-3-(6-(4-(1,4,5,6-tetrahydropyrimidin-2-ylcarbamoyl)-piperdin-1-yl)-purin-9-yl)-propionsäure] | 97%
15 | O=C(N[C@@H](Cn1cnc2c(N3CCC(CNC4=NCCN4)CC3)ncnc21)C(=O)O)OCc1ccccc1 [Beispiel 24, 2S-Benzyloxycarbonylamino-3-(6-(4-((4,5-dihydro-1H-imidazol-2-ylamino)-methyl)-piperidin-1-yl)-purin-9-yl)-propionsäure] | 95%
16 | N=C(N)NCC1CCN(c2ncnc3c2ncn3C[C@H](NC(=O)OCc2ccccc2)C(=O)O)CC1 [Beispiel 26, 2S-Benzyloxycarbonylamino-3-(6-(4-(guanidinomethyl)-piperidin-1-yl)-purin-9-yl)-propionsäure] | 91%
17 | O=C(N[C@@H](CNc1ncnc2c1ncn2CCCCNC1=NCCN1)C(=O)O)OCc1ccccc1 [Beispiel 18] | 95%
18 | N=C(N)NCCCCCn1cnc2c(NC[C@H](NC(=O)OCc3ccccc3)C(=O)O)ncnc21 [Beispiel 14, N^6-(3-(2S-(Benzyloxycarbonylamino)propionsäure))-N^9-(1-(5-guanidinylpentyl))-adenin] | 84%
